Measurements taken from ChEMBL document CHEMBL1201862, “PubChem BioAssay data set” (2004).
One block for each molecule: values may come before it. Active and inactive are the calls of the source.

What was measured:
[1] = target: T1, G-protein coupled receptor 55 (Homo sapiens, UniProt Q9Y2T6); assay: SAR Analysis of Selective Antagonists of GPR55 using an Image-Based Assay - Set 4. [Related pubchem assays (depositor defined):AID2013, AID2026]; assay type: functional
[2] = target: T2, Cannabinoid receptor 2 (Homo sapiens, UniProt P34972); assay: SAR analysis of antagonists of the Cannabinoid Receptor 2 using an Image-Based Assay - Set 3. [Related pubchem assays (depositor defined):AID2013, AID2026]; assay type: functional
[3] = target: T1, G-protein coupled receptor 55; assay: blockade of LPI-induced GPR55 arrestin translocation – imaging, U2OS, beta-arrestin-GFP, LPI agonist, set 2, SAR follow-up (AID 2820); assay type: functional
[4] = target: T1, G-protein coupled receptor 55; assay: inhibition of LPI-stimulated GPR55 beta-arrestin translocation – imaging, U2OS, beta-arrestin-GFP, LPI agonist, primary screen (AID 2013); assay type: functional;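 also: antagonist potency measured as reduced agonist-driven arrestin aggregation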
[5] = target: Dual specificity protein phosphatase 3 (Homo sapiens, UniProt P51452); assay: VHR phosphatase inhibition, dose response, selectivity assay for STEP inhibitor project, biochemical (AID 602374); assay type: functional; settings: read-out: IC50_Mean
[6] = target: T3, Cannabinoid receptor 1 (Homo sapiens, UniProt P21554); assay: SAR analysis of antagonists of the Cannabinoid Receptor 1 using an Image-Based Assay - Set 2. [Related pubchem assays (depositor defined):AID2013, AID2026]; assay type: functional
[7] = target: Tyrosine-protein phosphatase non-receptor type 5 (Homo sapiens, UniProt P54829); assay: PTPN5 enzyme inhibition – biochemical, fluorescence intensity, uHTS hits, confirmation (AID 602372); assay type: functional; settings: read-out: IC50_Mean
[8] = target: T3, Cannabinoid receptor 1; assay: SAR analysis of antagonists of the Cannabinoid Receptor 1 using an Image-Based Assay - Set 4. [Related pubchem assays (depositor defined):AID2013, AID2026]; assay type: functional
[9] = target: T4, Caspase-6 (Homo sapiens, UniProt P55212); assay: inhibition of CASP6 peptide cleavage – biochemical, VEID-R110 fluorescence, cherry-pick, dose response (AID 720632)
T4 sequence (P55212 whole entry): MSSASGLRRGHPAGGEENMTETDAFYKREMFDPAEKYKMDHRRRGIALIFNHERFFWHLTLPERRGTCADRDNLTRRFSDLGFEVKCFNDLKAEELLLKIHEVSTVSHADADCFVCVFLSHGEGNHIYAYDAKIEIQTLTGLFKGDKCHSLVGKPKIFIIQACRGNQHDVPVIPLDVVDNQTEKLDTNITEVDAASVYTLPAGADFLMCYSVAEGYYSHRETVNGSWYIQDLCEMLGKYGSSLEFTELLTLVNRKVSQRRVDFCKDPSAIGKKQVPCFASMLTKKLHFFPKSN

[10] = target: T5, G-protein coupled receptor 35 (Homo sapiens, UniProt Q9HC97); assay: SAR analysis of Agonists of the GPR35 Receptor using an Image-Based Assay - Set 2. [Related pubchem assays (depositor defined):AID2013, AID2026]; assay type: functional
[11] = target: T2, Cannabinoid receptor 2; assay: SAR analysis of agonists of the Cannabinoid Receptor 2 using an Image-Based Assay. [Related pubchem assays (depositor defined):AID2013, AID2026]; assay type: functional
[12] = target: T2, Cannabinoid receptor 2; assay: SAR analysis of antagonists of the Cannabinoid Receptor 2 using an Image-Based Assay. [Related pubchem assays (depositor defined):AID2013, AID2026]; assay type: functional
[13] = target: Induced myeloid leukemia cell differentiation protein Mcl-1 (Homo sapiens, UniProt Q07820); assay type: functional
[14] = target: Tyrosine-protein phosphatase non-receptor type 11 (Homo sapiens, UniProt Q06124); assay: PTPN11 enzyme inhibitors – biochemical, selectivity assay for STEP inhibitor project, dose response (AID 602367); assay type: functional; settings: read-out: IC50_Mean
[15] = target: T2, Cannabinoid receptor 2; assay: SAR analysis of agonists of the Cannabinoid Receptor 2 using an Image-Based Assay - Set 3. [Related pubchem assays (depositor defined):AID2013, AID2026]; assay type: functional
[16] = target: T5, G-protein coupled receptor 35; assay: SAR analysis of Antagonists of the GPR35 Receptor using an Image-Based Assay - Set 3. [Related pubchem assays (depositor defined):AID2013, AID2026]; assay type: functional
[17] = target: T3, Cannabinoid receptor 1; assay: SAR analysis of agonists of the Cannabinoid Receptor 1 using an Image-Based Assay - Set 2. [Related pubchem assays (depositor defined):AID2013, AID2026]; assay type: functional
[18] = target: Peroxisome proliferator-activated receptor gamma/Nuclear receptor coactivator 3 (Homo sapiens, UniProt P37231); assay: TR-FRET dose response biochemical High Throughput Screening assay for agonists of the steroid receptor coactivator 3 (SRC-3) recruitment by the peroxisome proliferator-activated receptor gamma (PPAR gamma): non-selective agonists. [Related pubchem assays: 1301 (Confirmation screen.), 1048 (Primary screen.)]; assay type: functional
[19] = target: Peroxisome proliferator-activated receptor gamma/Nuclear receptor coactivator 2 (Homo sapiens, UniProt P37231); assay: (§1) TR-FRET dose response biochemical High Throughput Screening assay for agonists of the steroid receptor coactivator 2 (SRC-2) recruitment by the peroxisome proliferator-activated receptor gamma (PPAR gamma): non-selective agonists. [Related pubchem assays: 1297, 1032 ]; assay type: functional
[20] = target: Peroxisome proliferator-activated receptor gamma/Nuclear receptor coactivator 1 (Homo sapiens, UniProt P37231); assay: as §1, with “1 (SRC-1)” for “2 (SRC-2)”, “assays (depositor defined):AID1300, AID1808, AID504735, AID631]” for “assays: 1297, 1032 ]”; assay type: protein assay
[21] = target: T6, Coagulation factor XII (Homo sapiens, UniProt P00748); assay: Factor XIIa Dose Response Confirmation from Single Well HTS. [Related pubchem assays (depositor defined):AID701]; assay type: functional
T6 sequence (P00748 whole entry): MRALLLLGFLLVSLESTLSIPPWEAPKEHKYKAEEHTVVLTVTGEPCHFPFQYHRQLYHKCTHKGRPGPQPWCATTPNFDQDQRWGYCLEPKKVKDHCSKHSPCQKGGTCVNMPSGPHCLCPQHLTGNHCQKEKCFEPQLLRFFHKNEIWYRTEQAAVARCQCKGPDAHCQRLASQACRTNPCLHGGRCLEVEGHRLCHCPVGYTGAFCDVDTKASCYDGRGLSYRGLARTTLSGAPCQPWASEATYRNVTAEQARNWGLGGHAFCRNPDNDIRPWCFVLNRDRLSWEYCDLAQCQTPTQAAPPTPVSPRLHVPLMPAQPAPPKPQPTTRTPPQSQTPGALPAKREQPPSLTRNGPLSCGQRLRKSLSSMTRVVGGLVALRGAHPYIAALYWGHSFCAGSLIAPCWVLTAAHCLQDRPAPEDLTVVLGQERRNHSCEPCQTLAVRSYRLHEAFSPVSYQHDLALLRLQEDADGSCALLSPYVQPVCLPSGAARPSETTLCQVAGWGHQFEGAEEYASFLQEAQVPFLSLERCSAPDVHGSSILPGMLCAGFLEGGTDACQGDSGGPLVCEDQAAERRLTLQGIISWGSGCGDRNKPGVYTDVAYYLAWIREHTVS

T1 sequence (Q9Y2T6 whole entry): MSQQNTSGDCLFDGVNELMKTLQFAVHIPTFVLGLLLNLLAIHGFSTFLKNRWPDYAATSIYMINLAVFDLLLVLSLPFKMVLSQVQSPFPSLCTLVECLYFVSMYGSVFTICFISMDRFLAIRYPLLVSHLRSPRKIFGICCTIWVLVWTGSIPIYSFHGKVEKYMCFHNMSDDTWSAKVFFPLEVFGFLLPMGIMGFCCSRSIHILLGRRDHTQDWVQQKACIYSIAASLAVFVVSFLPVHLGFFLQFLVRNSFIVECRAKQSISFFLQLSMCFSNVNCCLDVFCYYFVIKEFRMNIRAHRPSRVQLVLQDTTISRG
T2 sequence (P34972 whole entry): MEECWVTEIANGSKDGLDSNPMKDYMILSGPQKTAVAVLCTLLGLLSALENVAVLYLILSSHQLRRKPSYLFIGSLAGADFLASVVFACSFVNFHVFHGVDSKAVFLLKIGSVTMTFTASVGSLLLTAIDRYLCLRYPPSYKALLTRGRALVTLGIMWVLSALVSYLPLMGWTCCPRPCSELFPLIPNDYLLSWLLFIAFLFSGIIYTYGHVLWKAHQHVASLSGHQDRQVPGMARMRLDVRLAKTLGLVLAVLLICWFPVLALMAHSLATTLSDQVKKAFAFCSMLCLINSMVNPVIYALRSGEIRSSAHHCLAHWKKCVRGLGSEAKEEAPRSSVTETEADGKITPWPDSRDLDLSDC
T3 sequence (P21554 whole entry): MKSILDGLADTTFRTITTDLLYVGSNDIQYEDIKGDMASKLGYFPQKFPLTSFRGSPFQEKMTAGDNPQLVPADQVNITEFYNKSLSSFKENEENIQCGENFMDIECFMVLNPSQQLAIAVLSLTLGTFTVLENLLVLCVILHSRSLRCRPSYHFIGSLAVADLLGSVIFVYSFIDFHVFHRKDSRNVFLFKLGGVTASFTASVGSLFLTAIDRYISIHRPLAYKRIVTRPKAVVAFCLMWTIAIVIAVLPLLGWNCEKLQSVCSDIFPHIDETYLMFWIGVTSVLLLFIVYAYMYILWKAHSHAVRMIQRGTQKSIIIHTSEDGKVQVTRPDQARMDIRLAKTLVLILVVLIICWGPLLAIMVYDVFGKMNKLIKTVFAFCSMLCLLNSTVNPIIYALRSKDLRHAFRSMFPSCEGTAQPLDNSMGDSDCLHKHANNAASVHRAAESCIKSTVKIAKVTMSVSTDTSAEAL
T5 sequence (Q9HC97 whole entry): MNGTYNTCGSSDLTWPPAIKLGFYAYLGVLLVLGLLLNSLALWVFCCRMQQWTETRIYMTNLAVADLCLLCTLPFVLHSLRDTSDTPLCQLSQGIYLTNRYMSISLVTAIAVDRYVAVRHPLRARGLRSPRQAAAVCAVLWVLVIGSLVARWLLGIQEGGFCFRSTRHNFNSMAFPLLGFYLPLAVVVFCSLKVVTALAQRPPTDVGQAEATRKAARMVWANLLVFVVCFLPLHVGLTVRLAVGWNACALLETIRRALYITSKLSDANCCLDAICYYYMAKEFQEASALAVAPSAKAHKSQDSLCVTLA
Induced myeloid leukemia cell differentiation protein Mcl-1, sequence (Q07820 whole entry): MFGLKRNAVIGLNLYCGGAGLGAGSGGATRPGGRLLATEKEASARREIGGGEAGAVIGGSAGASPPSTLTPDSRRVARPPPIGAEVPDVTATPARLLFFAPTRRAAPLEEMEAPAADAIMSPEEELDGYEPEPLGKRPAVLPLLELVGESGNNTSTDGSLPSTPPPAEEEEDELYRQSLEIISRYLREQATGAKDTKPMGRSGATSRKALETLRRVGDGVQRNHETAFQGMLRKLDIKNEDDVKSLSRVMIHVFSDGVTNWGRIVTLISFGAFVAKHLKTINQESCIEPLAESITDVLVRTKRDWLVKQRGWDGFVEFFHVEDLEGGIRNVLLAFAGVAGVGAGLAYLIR
Dual specificity protein phosphatase 3, sequence (P51452 whole entry): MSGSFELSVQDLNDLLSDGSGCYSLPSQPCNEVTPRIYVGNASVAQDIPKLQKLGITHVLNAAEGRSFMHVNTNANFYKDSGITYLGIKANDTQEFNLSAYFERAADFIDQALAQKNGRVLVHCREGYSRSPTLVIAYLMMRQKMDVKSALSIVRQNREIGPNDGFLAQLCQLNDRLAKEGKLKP
Peroxisome proliferator-activated receptor gamma/Nuclear receptor coactivator 2, sequence (P37231 whole entry): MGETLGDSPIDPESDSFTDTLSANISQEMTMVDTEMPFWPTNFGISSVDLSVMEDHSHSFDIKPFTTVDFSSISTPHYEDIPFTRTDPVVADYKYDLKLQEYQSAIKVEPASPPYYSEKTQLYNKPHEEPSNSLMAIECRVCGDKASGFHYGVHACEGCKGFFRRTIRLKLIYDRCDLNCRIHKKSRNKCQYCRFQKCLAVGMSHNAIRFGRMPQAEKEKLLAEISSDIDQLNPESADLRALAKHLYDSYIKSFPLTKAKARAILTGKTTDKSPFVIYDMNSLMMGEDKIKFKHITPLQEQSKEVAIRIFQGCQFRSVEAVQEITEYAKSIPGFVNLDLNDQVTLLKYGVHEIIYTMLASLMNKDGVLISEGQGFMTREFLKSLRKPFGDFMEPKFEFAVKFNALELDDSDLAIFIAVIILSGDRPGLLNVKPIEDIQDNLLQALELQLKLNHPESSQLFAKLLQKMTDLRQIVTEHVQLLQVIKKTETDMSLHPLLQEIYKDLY
Peroxisome proliferator-activated receptor gamma/Nuclear receptor coactivator 2, sequence (Q15596 whole entry, further chain): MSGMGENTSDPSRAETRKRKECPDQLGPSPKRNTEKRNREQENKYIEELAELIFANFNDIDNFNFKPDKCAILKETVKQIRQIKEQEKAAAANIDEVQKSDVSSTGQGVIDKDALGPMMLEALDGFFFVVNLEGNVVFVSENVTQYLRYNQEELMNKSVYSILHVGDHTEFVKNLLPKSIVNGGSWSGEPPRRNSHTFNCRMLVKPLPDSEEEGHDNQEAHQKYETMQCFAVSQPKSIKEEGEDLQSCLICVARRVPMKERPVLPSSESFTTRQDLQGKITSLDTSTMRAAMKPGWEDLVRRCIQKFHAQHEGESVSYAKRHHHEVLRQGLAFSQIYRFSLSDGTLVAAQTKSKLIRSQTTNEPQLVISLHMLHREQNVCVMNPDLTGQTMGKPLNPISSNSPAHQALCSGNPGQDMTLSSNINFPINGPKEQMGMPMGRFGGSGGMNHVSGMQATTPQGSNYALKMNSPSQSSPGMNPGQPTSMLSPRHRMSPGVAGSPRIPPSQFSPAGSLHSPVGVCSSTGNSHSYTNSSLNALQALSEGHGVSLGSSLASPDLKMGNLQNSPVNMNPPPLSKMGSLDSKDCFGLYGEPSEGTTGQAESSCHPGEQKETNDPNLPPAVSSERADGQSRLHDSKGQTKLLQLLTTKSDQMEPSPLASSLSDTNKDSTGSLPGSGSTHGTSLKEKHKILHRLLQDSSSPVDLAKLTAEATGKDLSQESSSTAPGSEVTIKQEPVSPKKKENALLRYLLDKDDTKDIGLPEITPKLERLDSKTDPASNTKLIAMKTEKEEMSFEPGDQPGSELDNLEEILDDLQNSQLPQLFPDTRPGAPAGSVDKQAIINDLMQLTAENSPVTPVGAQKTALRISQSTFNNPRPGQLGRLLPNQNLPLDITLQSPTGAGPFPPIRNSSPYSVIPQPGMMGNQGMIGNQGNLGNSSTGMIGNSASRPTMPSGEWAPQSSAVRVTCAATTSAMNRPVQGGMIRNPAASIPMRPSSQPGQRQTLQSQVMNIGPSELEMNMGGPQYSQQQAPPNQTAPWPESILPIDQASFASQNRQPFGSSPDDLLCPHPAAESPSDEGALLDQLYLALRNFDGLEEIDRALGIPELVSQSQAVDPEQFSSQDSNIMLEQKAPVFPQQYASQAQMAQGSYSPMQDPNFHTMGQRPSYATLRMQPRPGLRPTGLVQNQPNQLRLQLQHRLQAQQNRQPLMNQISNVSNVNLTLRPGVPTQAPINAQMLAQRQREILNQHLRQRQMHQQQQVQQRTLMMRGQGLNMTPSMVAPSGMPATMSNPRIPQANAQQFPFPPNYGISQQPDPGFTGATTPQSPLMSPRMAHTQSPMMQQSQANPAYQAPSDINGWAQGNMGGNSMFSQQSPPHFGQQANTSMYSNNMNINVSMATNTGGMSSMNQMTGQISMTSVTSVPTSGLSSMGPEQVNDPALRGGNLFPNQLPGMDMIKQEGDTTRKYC
Tyrosine-protein phosphatase non-receptor type 5, sequence (P54829 whole entry): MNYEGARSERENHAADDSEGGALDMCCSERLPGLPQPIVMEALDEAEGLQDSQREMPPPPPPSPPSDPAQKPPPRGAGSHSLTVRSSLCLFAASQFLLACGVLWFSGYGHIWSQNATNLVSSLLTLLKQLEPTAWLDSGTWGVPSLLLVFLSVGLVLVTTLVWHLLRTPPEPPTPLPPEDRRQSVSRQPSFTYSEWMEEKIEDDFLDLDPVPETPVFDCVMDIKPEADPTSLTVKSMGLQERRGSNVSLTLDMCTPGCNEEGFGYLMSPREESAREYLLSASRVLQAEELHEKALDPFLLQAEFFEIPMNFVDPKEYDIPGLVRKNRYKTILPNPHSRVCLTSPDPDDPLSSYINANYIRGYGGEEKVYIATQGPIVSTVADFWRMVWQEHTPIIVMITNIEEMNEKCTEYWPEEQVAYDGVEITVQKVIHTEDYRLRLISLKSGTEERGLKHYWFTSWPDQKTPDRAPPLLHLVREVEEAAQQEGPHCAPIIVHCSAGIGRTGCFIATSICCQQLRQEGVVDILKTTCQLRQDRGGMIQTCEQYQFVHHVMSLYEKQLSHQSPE

IC50 [1]: 0.263 µM (active)
IC50 [2]: > 32 µM (inactive)
IC50 [3]: 0.136 µM (active)
IC50 [4]: < 0.5 µM (active)
IC50 [5]: 2.73 µM (active)
IC50 [6]: > 32 µM (inactive)
IC50 [7]: 28.3 µM (inactive)
IC50 [8]: 24.6 µM (inactive)
AC50 [9]: 14.7 µM (active)
EC50 [10]: > 32 µM (inactive)
EC50 [11]: > 32 µM (inactive)
IC50 [12]: > 32 µM (inactive)
IC50 [13]: 4.01 µM (active)
IC50 [14]: 2.95 µM (active)
EC50 [15]: > 32 µM (inactive)
IC50 [16]: > 32 µM (inactive)
EC50 [17]: > 32 µM (inactive)
Compound: Cc1cc(C)c2nc(-c3ccccn3)cc(C(=O)Nc3ccc(S(=O)(=O)Nc4onc(C)c4C)cc3)c2c1

EC50 [18]: > 79.4 µM (not active)
EC50 [19]: 20.9 µM (not active)
EC50 [20]: 24.3 µM (inactive)
IC50 [21]: > 50 µM (inactive)
Compound: O=C(CCSc1nnc2ccc3ccccc3n12)Nc1ccc(F)cc1
